Test results from the Biogen ADME set (Fang et al. 2023).
≈ marks a conversion by molar mass, not a printed value.

Settings: for aqueous solubility: pH 6.8

Row | MDR1-MDCK efflux ratio | intrinsic clearance, human liver microsomes | intrinsic clearance, rat liver microsomes | aqueous solubility | fraction unbound, human plasma | fraction unbound, rat plasma | SMILES
1 | 1.09 | 15 mL/min/kg | 430 mL/min/kg | 32.6 µg/mL (≈ 102 µM) |  |  | Cc1nc(CN(C)C(=O)C2c3ccccc3-c3ccccc32)no1
2 |  | 10.8 mL/min/kg | 80.8 mL/min/kg |  |  |  | c1csc(Cc2nc(-c3cnccn3)no2)c1
3 | 30.1 | 18.4 mL/min/kg | 119 mL/min/kg | 20.2 µg/mL (≈ 48.5 µM) |  |  | Cc1ccc2c(c1)C(=O)CC1(CCN(C(=O)c3ccc4nc(C)cc(O)c4c3)CC1)O2
4 |  | 99.4 mL/min/kg | 2230 mL/min/kg | 13.5 µg/mL (≈ 42.5 µM) |  |  | CCCc1cc(-c2nn3c(C4CCCC4)nnc3s2)n(C)n1
5 | 1.3 | ≤ 4.74 mL/min/kg | 104 mL/min/kg |  |  |  | COc1ccccc1CNc1cn[nH]c(=O)c1Cl
6 | 3.95 | ≤ 4.74 mL/min/kg | ≤ 10.7 mL/min/kg |  |  |  | Cn1cnnc1NC(=O)c1cnn2c1CCCC2
7 | 12.2 | 54.3 mL/min/kg | 294 mL/min/kg | 65.1 µg/mL (≈ 157 µM) |  |  | Cc1nc(-c2cnn(C)c2-c2ccc(C(F)(F)F)cn2)c2c(N3CCC3)ncnn12
8 |  | 35.3 mL/min/kg | 92.3 mL/min/kg |  |  |  | Nc1c(C(=O)NCC2CCCO2)sc(=S)n1-c1ccc(Cl)cc1 (stereo unspecified)
9 | 1.42 | 14 mL/min/kg | 55.8 mL/min/kg | 23 µg/mL (≈ 93.7 µM) |  |  | CC(C)C(=O)Nc1ccc2cnn(C(C)C)c2c1
10 |  | 25.9 mL/min/kg | 211 mL/min/kg | 55.6 µg/mL (≈ 172 µM) |  |  | COc1ccc(CN(C)c2ncncc2Br)cc1O
11 | 11.3 | ≤ 4.74 mL/min/kg | ≤ 10.7 mL/min/kg | 45.2 µg/mL (≈ 152 µM) |  |  | O=C(CCN1C(=O)CCC1=O)Nc1cccc2ncccc12
12 |  |  |  | 0.5 µg/mL (≈ 1.6 µM) |  |  | O=C(Nc1nc2ccccc2[nH]1)c1ccc(-c2ccccc2)cc1
13 |  |  |  | 36.2 µg/mL (≈ 151 µM) |  |  | Cc1cnc(CS(=O)(=O)C2CCCC2)cn1
14 |  | 43.4 mL/min/kg | 814 mL/min/kg | 40.6 µg/mL (≈ 117 µM) |  |  | COc1ccc(/C=C/C(=O)c2c(C)nc3ccccc3c2N)c(OC)c1
15 | 0.924 | 20.3 mL/min/kg | 498 mL/min/kg | 46.5 µg/mL (≈ 181 µM) |  |  | CN(CC(=O)NC1(C#N)CCCC1)c1ccccc1
16 | 0.642 | 42.2 mL/min/kg | 661 mL/min/kg |  |  |  | CN1CCN(S(=O)(=O)c2ccc(C(F)(F)F)nc2)C(C)(C)C1
17 | 1.42 | ≤ 4.74 mL/min/kg | 76.1 mL/min/kg |  |  |  | CSC1(CNc2cc(C)nc(C)n2)CCOCC1
18 | 0.876 | 139 mL/min/kg | 128 mL/min/kg | 7 µg/mL (≈ 17.7 µM) |  |  | O=C(CSc1nc2nc(O)cc(O)c2s1)c1ccc(-c2ccccc2)cc1
19 |  | 35.1 mL/min/kg | 382 mL/min/kg |  |  |  | Oc1c(C(c2ccc(F)cc2)N2CCCCC2)ccc2cccnc12 (stereo unspecified)
20 | 0.645 | 105 mL/min/kg | 409 mL/min/kg | 26.9 µg/mL (≈ 77.7 µM) |  |  | Fc1ccc(F)c(CN2CCN(Cc3ccc4c(c3)OCO4)CC2)c1
21 |  |  |  |  | 0.00062 | 0.00051 | COc1cc2c(cc1OC)CN(CCc1ccc(NC(=O)c3cccc4c(O)c5cccc(OC)c5nc34)cc1)CC2
22 |  |  |  | 8.39 µg/mL (≈ 19.7 µM) |  |  | CNC(=O)c1ccc2c(c1)NC(=O)/C2=C(\Nc1cccc(CN(C)C)c1)c1ccccc1
23 | 0.507 |  |  | 0.19 µg/mL (≈ 0.727 µM) |  |  | N#Cc1ccc(COc2cnc3ccccc3n2)cc1

Row | MDR1-MDCK efflux ratio | intrinsic clearance, human liver microsomes | intrinsic clearance, rat liver microsomes | aqueous solubility | fraction unbound, human plasma | fraction unbound, rat plasma | SMILES
24 | 0.502 |  |  | 0.69 µg/mL (≈ 2.15 µM) |  |  | Cc1ccc(C(=O)COC(=O)c2cc(O)nc3ccccc23)cc1
25 |  | ≤ 4.74 mL/min/kg | ≤ 10.7 mL/min/kg |  |  |  | CCNC(=O)c1cc(N2CCC(N3CCCC3=O)CC2)ccn1
26 | 2.92 | ≤ 4.74 mL/min/kg | 30.6 mL/min/kg |  |  |  | CCOCCC(=O)N1CCC2(CCCN(C)CC2)CC1
27 | 0.562 | 109 mL/min/kg | 605 mL/min/kg |  |  |  | COc1cccc(C(=O)Nc2nccs2)c1
28 | 3.51 | 167 mL/min/kg | 2000 mL/min/kg | 73.2 µg/mL (≈ 231 µM) |  |  | CSCC[C@@H](CO)n1ccnc1-c1oc2ccccc2c1C
29 | 0.395 | 65.9 mL/min/kg | 1990 mL/min/kg |  |  |  | CCCN(CCC1=CCCCC1)C(=O)c1cc(C(F)F)n[nH]1
30 | 32.5 | ≤ 4.74 mL/min/kg | 15.7 mL/min/kg | 36.5 µg/mL (≈ 116 µM) |  |  | C#CCNC(=O)CN1CCCN(C(=O)c2cccc(C)n2)CC1
31 | 0.496 | 18.6 mL/min/kg | 238 mL/min/kg | 37.6 µg/mL (≈ 133 µM) |  |  | Cc1cccc(NC2CCN(Cc3ccncc3)CC2)n1
32 | 6.4 | 29.6 mL/min/kg | 101 mL/min/kg | 50 µg/mL (≈ 158 µM) |  |  | CN(C)C(=O)OCCN1CCC(c2c[nH]c3ncccc23)CC1
33 |  | 23.2 mL/min/kg | 106 mL/min/kg | 32.5 µg/mL (≈ 72.2 µM) |  |  | C[C@@H](Oc1cc(-c2cnn(C3CCNCC3)c2)cnc1N)c1c(Cl)ccc(F)c1Cl
34 | 0.537 | ≤ 4.74 mL/min/kg | 362 mL/min/kg | 41.5 µg/mL (≈ 175 µM) |  |  | CC(C)N1CCC(O)(c2ccccc2F)CC1
35 | 0.729 |  |  | 0.66 µg/mL (≈ 1.92 µM) |  |  | O=C(Nc1nncs1)c1ccc(N2CCC3(CCCCC3)C2)nc1
36 | 0.579 | 37.4 mL/min/kg | 631 mL/min/kg |  |  |  | CCOc1cc(N2CCOC3(CCCC3)C2)ncn1
37 |  |  |  | 30.9 µg/mL (≈ 121 µM) |  |  | Cc1nnc(-c2ccccc2-c2c[nH]nc2C)s1
38 | 10.9 |  | 405 mL/min/kg | 34.5 µg/mL (≈ 113 µM) | 0.0428 | 0.176 | N#CC[C@H](C1CCCC1)n1cc(-c2ncnc3[nH]ccc23)cn1
39 | 0.676 | 73.6 mL/min/kg | 139 mL/min/kg | 40.9 µg/mL (≈ 172 µM) |  |  | CCc1cc2c(N(C)CCO)ncnc2s1
40 | 0.862 | 14.3 mL/min/kg | 1220 mL/min/kg | 37.5 µg/mL (≈ 145 µM) |  |  | Cc1cc(C)c2c(N(C)CCC(C)C)ncnc2n1
41 | 1.1 | 27.3 mL/min/kg | 80.2 mL/min/kg | 38.2 µg/mL (≈ 150 µM) |  |  | Cc1cc(C)cc(C(=O)Nc2c(C#N)cnn2C)c1
42 | 1.32 | 14.3 mL/min/kg | 239 mL/min/kg | 29.3 µg/mL (≈ 118 µM) |  |  | CCCCn1nc(-c2ccc(C)o2)nc1CNC
43 | 1.06 | ≤ 4.74 mL/min/kg | 65.2 mL/min/kg | 49.1 µg/mL (≈ 171 µM) |  |  | O=C(CN1CCC(c2ccccc2)CC1)N1CCNC1=O
44 |  | 8.14 mL/min/kg | 155 mL/min/kg |  |  |  | CCCc1cnc(C)nc1N(C)CCC(C)(C)O
45 |  |  |  | 11 µg/mL (≈ 54.1 µM) |  |  | NC(=O)Cn1nnc(-c2ccccc2)n1
